From patent US9145415B2, “Nitrogen-containing heterocyclic compound or salt thereof” (FUJIFILM Corporation, priority 2012, dated 2015)
Like-named read-outs stand apart in the source and are kept apart here.

Assays:
[1] = molecular target: T1, human FLT3 protein (FLT3 (WT)) (Homo sapiens, UniProt P36888); experiment: FLT3 inhibition test (FLT3 enzyme inhibition, time-resolved fluorescence of substrate peptide phosphorylation); assay type: biochemical; settings: read-out: FLT3 (WT) enzyme inhibition activity
T1 construct: human FLT3 protein (intracellular region, 564 to 993 aa); GST; purchased Carna Biosciences; host or cells: baculovirus expression system
T1 sequence (P36888 564-993): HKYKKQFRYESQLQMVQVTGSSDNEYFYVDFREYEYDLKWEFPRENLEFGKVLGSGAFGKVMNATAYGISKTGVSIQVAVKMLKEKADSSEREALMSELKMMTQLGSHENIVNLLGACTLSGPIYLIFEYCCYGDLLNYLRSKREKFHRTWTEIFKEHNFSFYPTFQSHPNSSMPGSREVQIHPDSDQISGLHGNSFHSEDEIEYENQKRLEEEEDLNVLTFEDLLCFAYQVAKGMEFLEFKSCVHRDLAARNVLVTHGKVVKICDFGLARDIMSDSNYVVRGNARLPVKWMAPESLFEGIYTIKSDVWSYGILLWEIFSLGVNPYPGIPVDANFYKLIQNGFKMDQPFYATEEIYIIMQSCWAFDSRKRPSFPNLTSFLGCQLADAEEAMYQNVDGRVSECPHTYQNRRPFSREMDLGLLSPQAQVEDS
Procedure, shortened: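 Substrate peptide phosphorylation detected by time-resolved fluorescence after a 30 min kinase reaction at 25° C with 50 μM ATP (final). Beforehand, compound and FLT3 (WT, 1.2 μg) stood 15 min at 25° C in HEPES buffer pH 7.5 containing MgCl2, NaCl, BSA and DTT.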

Molm-13 cells = experiment: Leukemia cell proliferation inhibition test (ATPlite), Molm-13; assay type: cell-based; settings: read-out: MOLM13 cell proliferation inhibition effect
Procedure, shortened: (§1)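 Luminescent ATP read-out (firefly luciferase) used as a total cell count after 72 h compound exposure at 37° C, 5% CO2. Cells: 10,000/well in RPMI + 10% FBS. GI50 = 50% inhibition relative to 0.1% DMSO, from a sigmoid dose-response fit; duplicates.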

MV4-11 cells = experiment: Leukemia cell proliferation inhibition test (ATPlite), MV4-11; assay type: cell-based; settings: read-out: MV4-11 cell proliferation inhibition effect
Procedure, shortened: as §1

[2] = GST-fused human FLT3 (564 to 993 aa), ATP 50 μM
[3] = Homo sapiens, MOLM-13, 72 h, Molm-13, 72 hours culture, ATPlite, GI50 per method
[4] = Homo sapiens, MV4-11, 72 h, MV4-11, 72 hours culture, ATPlite, GI50 per method
[5] = Homo sapiens, MOLM-13, MOLM13 cell
[6] = Homo sapiens, MV4-11, MV4-11 cell
[7] = Molm-13, 72 hours culture, ATPlite, GI50 per method
[8] = MV4-11, 72 hours culture, ATPlite, GI50 per method

Row | SMILES | IC50 [1, 2] [nM] | IC50 (Molm-13 cells; [3]) [nM] | IC50 (MV4-11 cells; [4]) [nM] | IC50 ([1]; FLT3 (WT)) [nM] | IC50 (Molm-13 cells; [5]) [nM] | IC50 (MV4-11 cells; [6]) [nM] | IC50 (Molm-13 cells; [7]) [nM] | IC50 (MV4-11 cells; [8]) [nM]
1 | CCCNc1nc(NCCc2ccncc2)ncc1C(=O)Nc1ccc(OC)c(NC(=O)CNC(=O)/C=C/CN(C)C)c1 [Compound 1-9] | < 10 | 10 to 100 | < 10 | – | – | – | – | –
2 | CCNc1nc(Nc2ccc(C#N)cc2)ncc1C#CCCCNC(=O)[C@H](C)N(C)C(=O)/C=C/CN(C)C [Compound 10-46] | < 10 | < 10 | < 10 | – | – | – | – | –
3 | CCCNc1nc(Nc2ccc(C#N)cc2)ncc1C#C[C@@H]1CCC[C@H](NC(=O)[C@H](C)N(C)C(=O)/C=C/CN(C)C)C1 [Compound 13-4] | < 10 | < 10 | < 10 | – | – | – | – | –
4 | CCCNc1nc(Nc2ccc3c(OC)nn(CCOC)c3c2)ncc1C#CCCCNC(=O)[C@@H]1CCCN1C(=O)/C=C/CN(C)C [Compound 22-55] | – | – | – | < 10 | < 10 | < 10 | – | –
5 | CCCNc1nc(Nc2ccc(C#N)cc2)ncc1C#CCCCNC(=O)CNC(=O)/C=C/CN(C)C [Compound 7-57] | < 10 | < 10 | < 10 | – | – | – | – | –
6 | C[C@@H](C(=O)NCCCC#Cc1cnc(Nc2ccc(F)nc2)nc1N1CCCC1)N(C)C(=O)/C=C/CN(C)C [Compound 11-8] | < 10 | 10 to 100 | 10 to 100 | – | – | – | – | –
7 | CCCNc1nc(Nc2ccc(C#N)cc2)ncc1C#CC(C)(C)CCNC(=O)[C@H](C)N(C)C(=O)/C=C/CN(C)C [Compound 9-26] | < 10 | < 10 | < 10 | – | – | – | – | –
8 | CNc1nc(Nc2ccc(C#N)cc2)ncc1C#CCCCNC(=O)[C@H](C)N(C)C(=O)/C=C/CN(C)C [Compound 10-45] | < 10 | < 10 | < 10 | – | – | – | – | –
9 | CCCNc1nc(Nc2cccc(-n3ccnn3)c2)ncc1C#CCCCNC(=O)[C@H](C)N(C)C(=O)/C=C/CN(C)C [Compound 22-20] | – | – | – | < 10 | < 10 | < 10 | – | –
10 | COCCNc1nc(Nc2cccc(C#N)c2)ncc1C#C[C@@H]1CCC[C@H](NC(=O)[C@H](C)N(C)C(=O)/C=C/CN(C)C)C1 [Compound 22-38] | – | – | – | < 10 | < 10 | < 10 | – | –
11 | CCCOc1nc(Nc2cccc(F)c2)ncc1C#C[C@@H]1CCC[C@H](NC(=O)[C@H](C)N(C)C(=O)/C=C/CN(C)C)C1 [Compound 21-52] | – | – | – | < 10 | < 10 | < 10 | – | –
12 | CCCNc1nc(Nc2ccc3c(F)nn(C)c3c2)ncc1C#CCCCNC(=O)[C@H](C)N(C)C(=O)/C=C/CN(C)C [Compound 22-58] | – | – | – | < 10 | < 10 | < 10 | – | –
13 | CCCNc1nc(Nc2cnc3ccccc3c2)ncc1C#CCCCNC(=O)[C@H](C)N(C)C(=O)/C=C/CN(C)C [Compound 22-3] | – | – | – | < 10 | 10 to 100 | 10 to 100 | – | –
14 | C=CC(=O)NCCC(=O)Nc1cccc(NC(=O)c2cnc(NCCc3ccncc3)nc2NCCC)c1 [Compound 2-7] | < 10 | 100 to 1000 | 10 to 100 | – | – | – | – | –
15 | COCCCNc1nc(Nc2ccc(C#N)cc2)ncc1C#CCCCNC(=O)[C@H](C)N(C)C(=O)/C=C/CN(C)C [Compound 10-49] | < 10 | < 10 | < 10 | – | – | – | – | –
16 | CCCNc1nc(Nc2ccc3[nH]ncc3c2)ncc1C#CCCCNC(=O)[C@H](C)N(C)C(=O)/C=C/CN(C)C [Compound 21-55] | – | – | – | < 10 | < 10 | < 10 | – | –
17 | CCNc1nc(Nc2ccc3cn[nH]c3c2)ncc1C#CCCCNC(=O)[C@@H]1CCCN1C(=O)/C=C/CN(C)C [Compound 10-70] | < 10 | < 10 | < 10 | – | – | – | – | –
18 | CCCNc1nc(Nc2ccc(C(N)=O)cc2)ncc1C#CCCCNC(=O)[C@H](C)N(C)C(=O)/C=C/CN(C)C [Compound 7-4, (S,E)-4-((5-(5-(2-(4-(Dimethylamino)-N-methyl-2-butenamido)propaneamido)-1-pentyn-1-yl)-4-(propylamino)pyrimidin-2-yl)amino)benzamide] | < 10 | < 10 | < 10 | – | – | – | – | –
19 | C=CC(=O)NCCC(=O)NCCNC(=O)c1cnc(NCCc2ccncc2)nc1NCCC [Compound 2-19] | 10 to 100 | > 1000 | > 1000 | – | – | – | – | –
20 | CNc1nc(Nc2ccc(F)cc2)ncc1C#CCCCNC(=O)[C@@H]1C[C@H](C)CN1C(=O)/C=C/CN(C)C [Compound 7-92] | < 10 | < 10 | < 10 | – | – | – | – | –

Row | SMILES | IC50 [1, 2] [nM] | IC50 (Molm-13 cells; [3]) [nM] | IC50 (MV4-11 cells; [4]) [nM] | IC50 ([1]; FLT3 (WT)) [nM] | IC50 (Molm-13 cells; [5]) [nM] | IC50 (MV4-11 cells; [6]) [nM] | IC50 (Molm-13 cells; [7]) [nM] | IC50 (MV4-11 cells; [8]) [nM]
21 | CCCNc1nc(Nc2ccc(C#N)cc2)ncc1C#CCCCNC(=O)CN(CCC)C(=O)/C=C/CN(C)C [Compound 7-64] | < 10 | < 10 | < 10 | – | – | – | – | –
22 | CCCNc1nc(Nc2ccc(C#N)cc2)ncc1C#CCCCNC(=O)[C@@H]1CC(F)(F)CN1C(=O)/C=C/CN(C)C [Compound 7-54] | 10 to 100 | < 10 | < 10 | – | – | – | – | –
23 | COCCNc1nc(Nc2ccc(C#N)cc2)ncc1C#CCCCNC(=O)[C@H](C)N(C)C(=O)/C=C/CN(C)C [Compound 10-50] | < 10 | < 10 | < 10 | – | – | – | – | –
24 | C[C@@H](C(=O)NCCCC#Cc1cnc(Nc2cccc(F)c2)nc1NCC1CCOCC1)N(C)C(=O)/C=C/CN(C)C [Compound 10-7] | < 10 | < 10 | < 10 | – | – | – | – | –
25 | CCCNc1nc(Nc2cccc(F)c2)ncc1C#CCCCNC(=O)[C@@H]1CCCN1C(=O)/C=C/CN(C)C [Compound 7-45] | < 10 | – | – | – | – | – | < 10 | < 10
26 | CCCNc1nc(Nc2cnc3c(c2)c(C)nn3C)ncc1C#CCCCNC(=O)[C@H](C)N(C)C(=O)/C=C/CN(C)C [Compound 22-28] | – | – | – | < 10 | < 10 | < 10 | – | –
27 | CCCNc1nc(Nc2ccc(C#N)cc2)ncc1C#CCCCNC(=O)[C@@H]1CCCCN1C(=O)/C=C/CN(C)C [Compound 7-37] | < 10 | < 10 | < 10 | – | – | – | – | –
28 | CCCNc1nc(Nc2ccc(C(N)=O)cc2)ncc1C(=O)Nc1cccc(NC(=O)[C@@H]2CCCN2C(=O)/C=C/CN(C)C)c1 [Compound 3-30] | < 10 | 10 to 100 | < 10 | – | – | – | – | –
29 | CCCNc1nc(Nc2ccc(C(N)=O)cc2)ncc1C#Cc1cccc(NC(=O)[C@H](C)N(C)C(=O)/C=C/CN(C)C)c1 [Compound 8-14] | < 10 | – | – | – | – | – | 10 to 100 | < 10
30 | C[C@@H](C(=O)NCCCC#Cc1cnc(Nc2cccc(F)n2)nc1NC1CC1)N(C)C(=O)/C=C/CN(C)C [Compound 9-23] | 10 to 100 | 100 to 1000 | 10 to 100 | – | – | – | – | –
31 | COCCNc1nc(Nc2cccc(F)c2)ncc1C#C[C@@H]1CCC[C@H](NC(=O)[C@H](C)N(C)C(=O)/C=C/CN(C)C)C1 [Compound 22-36] | – | – | – | < 10 | < 10 | < 10 | – | –
32 | C=CC(=O)NCC(=O)Nc1cc(Cl)cc(NC(=O)c2cnc(NCCc3ccncc3)nc2NCCC)c1 [Compound 2-5] | < 10 | 10 to 100 | 10 to 100 | – | – | – | – | –
33 | CNc1nc(Nc2ccc(F)cc2)ncc1C#CCCCNC(=O)[C@@H]1C[C@@H](O)CN1C(=O)/C=C/CN(C)C [Compound 7-85] | < 10 | < 10 | < 10 | – | – | – | – | –
34 | C[C@@H](C(=O)NCCCC#Cc1cnc(Nc2ccc(C#N)cc2)nc1N1CCC(F)(F)CC1)N(C)C(=O)/C=C/CN(C)C [Compound 10-43] | < 10 | 10 to 100 | 10 to 100 | – | – | – | – | –
35 | CC(C)Nc1nc(Nc2ccc(C#N)cc2)ncc1C#CCCCNC(=O)[C@H](C)N(C)C(=O)/C=C/CN(C)C [Compound 21-33] | – | – | – | < 10 | < 10 | < 10 | – | –
36 | CCCNc1nc(Nc2ccc(C(N)=O)cc2)ncc1C(=O)NCCCNC(=O)[C@H](C)NC(=O)/C=C/CN(C)C [Compound 5-4] | < 10 | 100 to 1000 | 100 to 1000 | – | – | – | – | –
37 | COCCCNc1nc(Nc2ccc3cn[nH]c3c2)ncc1C#CCCCNC(=O)[C@H](C)N(C)C(=O)/C=C/CN(C)C [Compound 10-65] | < 10 | < 10 | < 10 | – | – | – | – | –
38 | C=CC(=O)NCC(=O)Nc1cccc(C#Cc2cnc(Nc3ccc(C(N)=O)cc3)nc2NCCC)c1 [Compound 8-3] | < 10 | 10 to 100 | < 10 | – | – | – | – | –
39 | CCCNc1nc(Nc2ccc3cnn(C)c3c2)ncc1C#CCCCNC(=O)[C@H](C)N(C)C(=O)/C=C/CN(C)C [Compound 21-9] | < 10 | < 10 | < 10 | – | – | – | – | –
